In ChEMBL document CHEMBL1159040, “Synthesis and evaluation of phenylequine for antimalarial activity in vitro and in vivo” (Bioorg Med Chem Lett, 2010):

Assays:
Plasmodium falciparum [1] = assay: Antiplasmodial activity against chloroquine-sensitive Plasmodium falciparum D10 infected in human O+ RBC by parasite LDH assay; assay type: functional, organism-based
KB = assay: Cytotoxicity against human KB cells; assay type: cell-based
Plasmodium falciparum [2] = assay: Antiplasmodial activity against chloroquine-resistant Plasmodium falciparum K1 infected in human O+ erythrocytes by parasite LDH assay; assay type: functional, organism-based
Plasmodium yoelii [3] = assay: Antiplasmodial activity in chloroquine-nonsensitive Plasmodium yoelii infected BALB/c mice (Mus musculus) assessed as inhibition of parasitaemia at 3 mg/kg, intraperitoneally daily once for 4 days; assay type: functional; details: route intraperitoneal
Plasmodium berghei [4] = assay: Antiplasmodial activity in chloroquine-sensitive Plasmodium berghei ANKA infected BALB/c mice (Mus musculus) assessed as mean parasitemia at 10 mg/kg, intraperitoneally daily once for 4 days; assay type: functional; details: route intraperitoneal
Plasmodium yoelii [5] = assay: Antiplasmodial activity in chloroquine-nonsensitive Plasmodium yoelii infected BALB/c mice (Mus musculus) assessed as inhibition of parasitaemia at 1 mg/kg, intraperitoneally daily once for 4 days; assay type: functional; details: ip, 96 h, route intraperitoneal
Plasmodium yoelii [6] = assay: Antiplasmodial activity in chloroquine-nonsensitive Plasmodium yoelii infected BALB/c mice (Mus musculus) assessed as inhibition of parasitaemia at 10 mg/kg, intraperitoneally daily once for 4 days; assay type: functional; details: ip, 96 h, route intraperitoneal
Plasmodium berghei [7] = assay: Antiplasmodial activity in chloroquine-sensitive Plasmodium berghei ANKA infected BALB/c mice (Mus musculus) assessed as inhibition of parasitemia at 10 mg/kg, intraperitoneally daily once for 4 days; assay type: functional; details: ip, 96 h, route intraperitoneal
Plasmodium yoelii [8] = assay: Antiplasmodial activity in chloroquine-nonsensitive Plasmodium yoelii infected BALB/c mice (Mus musculus) assessed as inhibition of parasitaemia at 30 mg/kg, intraperitoneally daily once for 4 days; assay type: functional; details: route intraperitoneal
Plasmodium berghei [9] = assay: Antiplasmodial activity in chloroquine-sensitive Plasmodium berghei ANKA infected BALB/c mice (Mus musculus) assessed as mean parasitemia at 30 mg/kg, intraperitoneally daily once for 4 days; assay type: functional; details: route intraperitoneal
Plasmodium berghei [10] = assay: Antiplasmodial activity in chloroquine-sensitive Plasmodium berghei ANKA infected BALB/c mice (Mus musculus) assessed as inhibition of parasitemia at 30 mg/kg, intraperitoneally daily once for 4 days; assay type: functional; details: route intraperitoneal

SMILES	IC50 (Plasmodium falciparum [1])	Activity (KB)	IC50 (Plasmodium falciparum [2])	inhibition in vivo at 10 mg/kg (Plasmodium yoelii [6])	inhibition (INH) (Plasmodium yoelii [3])	Activity (Plasmodium berghei [9])	other results
CN(C)Cc1ccccc1CNc1ccnc2ccccc12	106 nM	8.5 µM	70.3 nM				
CN(C)Cc1ccccc1CNCCNc1ccnc2cc(Cl)ccc12	19.5 nM	14 µM	9.8 nM				
CCN(CC)CCCC(C)Nc1ccnc2cc(Cl)ccc12.O=P(O)(O)O.O=P(O)(O)O (stereo not drawn) [CHLOROQUINE PHOSPHATE]				98.1%			inhibition in vivo at 3 mg/kg (Plasmodium yoelii [3]; Plasmodium yoelii, ip, 96 h): 32.7%; Activity (Plasmodium berghei [4]): 0%; inhibition in vivo at 1 mg/kg (Plasmodium yoelii [5]): 32.7%; inhibition in vivo at 10 mg/kg (Plasmodium berghei [7]): 100%
CN(C)Cc1ccccc1CNc1ccnc2cc(Cl)ccc12.O=C(O)CC(O)(CC(=O)O)C(=O)O [PHENYLEQUINE DICITRATE]					8.9%		inhibition (INH) (Plasmodium yoelii [8]): 99.6%
CN(C)Cc1ccccc1CNc1ccnc2cc(Cl)ccc12.Cl.Cl [PHENYLEQUINE DIHYDROCHLORIDE]				99.7%	94.5%	0%	inhibition in vivo at 30 mg/kg (Plasmodium yoelii [8]; Plasmodium yoelii, ip, 96 h): 99.5%; inhibition in vivo at 30 mg/kg (Plasmodium berghei [10]; Plasmodium berghei, ANKA, ip, 96 h): 100%
CN(C)Cc1ccccc1CNc1ccnc2cc(Cl)ccc12 [PHENYLEQUINE]	13.2 nM	70 µM	6.9 nM			0%	inhibition (INH) (Plasmodium berghei [10]): 100%
